Experimental data: patent US11426371B2, “Compositions and methods for treating cancer” (University of Virginia Patent Foundation, priority 2017, dated 2022)
Where two headings read alike, the source gives them in different places.

Key:
OCI-AML3 = test: Cell viability, panel of AML cell lines; format: cell-based; conditions: Homo sapiens, OCI-AML-3, OCI-AML3 cells
Protocol: Representative human AML cell lines (FIG. 2A; upper and lower panels) HL60/VCR and (FIG. 2B; upper and lower panels) OCI-AML2 were treated with SACLAC for 24 and 48 hours. Viability was assessed by MTS assay at 24 and 48 hours and apoptosis was assessed by flow cytometry at 48 hours. Upper panels represent % viability and lower panels indicate % apoptosis.
Two representative human-derived AML cell lines, HL60/VCR and OCI-AML2, are shown. These studies have been expanded to a large panel of additional human AML cell lines (n=30, Table 1).

[1] = test system: normal samples (PBMCs and/or CD34+ cells); test: Viability of normal samples, MTS and Cell Titer Glo (FIG. 4, Table 2); format: cell-based; conditions: PBMC
Protocol: AML cell lines and normal samples (PBMCs and/or CD34+ cells) were treated for 24 hours with SACLAC (FIG. 4A-7 cell lines) and similar AC inhibitor SABRAC (2-bromo-N-((2S,3R)-1,3-dihydroxyoctadecan-2-yl)acetamide) (FIG. 4B-four cell lines). Viability was assessed by MTS and Cell Titer Glo viability assays. EC50 values (FIG. 4C) were graphed to visualize fold-change between AML and normal cells with treatment of each compound. […] Cells tested for SABRAC were HL60/VCR and OCI-AML2 AML cell lines and two normal PBMC control samples (PBMC1 and PBMC2). The same four cell types were tested for SACLAC, as well as the AML cell line THP-1 and two normal CD34+ cell control samples (CD34+1 and CD34+2).
Next, we tested the toxicity of SACLAC and a similar published AC inhibitor SABRAC^17 to normal hematopoietic cells to ensure that AML cells are selectively targeted by the compound (FIG. 4A). […] This degree of selectivity was unexpected but extremely important for potential clinical use. […] This remarkable increase in selectivity is a surprising discovery that greatly exceeds the predicted similarity in compound behavior that one may expect with a simple substitution of one halogen for another (Cl for Br).

[2] = test system: primary AML patient samples; test: Apoptosis in primary AML patient cells; format: cell-based, human; conditions: 48 hours, nutrient- and growth factor-rich culture
Protocol: (§1) Multiple primary patient (Pt) AML cells were treated with various doses of SACLAC and assayed for apoptosis at 48 hours and colony formation over several days. […] The ordinate represents Colonies (as % of control) and the abscissa represents the concentration of SACLAC (μM). Unt=untreated; DMSO=dimethyl sulfoxide vehicle control.
(§2) Further, effects on patient samples strongly support the potential for clinical relevance of SACLAC. […] Based on the data presented here, we propose that use of SACLAC for treatment of AML is novel and clinically promising.

[3] = test system: primary AML patient samples; test: Colony formation of primary AML patient cells; format: cell-based, human; conditions: over several days
Protocol: as §1, §2

[4] = SACLAC serum/blood levels after i.p. or i.v. administration; format: in vivo, mouse
Protocol: FIG. 7 graphically depicts SACLAC levels in mouse blood following administration intraperitoneally (i.p.) at 40 mg/kg body weight or intravenously (i.v.) at 5 mg/kg body weight. The ordinate represents Concentration (nM) and the abscissa Time (hours). DMSO (dimethyl sulfoxide) and β-HPCD (2-hydroxypropyl […]) represent the vehicle for SACLAC delivery.
Serum concentrations of SACLAC were also determined following administration. (see FIG. 7). […] SACLAC was dissolved in dimethyl sulfoxide (DMSO) or 2-hydroxypropyl-β-cyclodextrin (β-HPCD). Serum levels were determined following injection of free SACLAC (i.p.—in DMSO at 40 mg/kg; or i.v.—5 mg/kg in β-HPCD). […] They also show our ability to generate and characterize in vitro functionality by modifying delivery and delivery systems, monitor PK and evolve our approaches based on experimental results in order to maximize in vivo efficacy.

[5] = Solubility in vehicles for i.v. drug delivery; format: physicochemical

CCCCCCCCCCCCCCC[C@@H](O)[C@H](CO)NC(=O)CCl [SACLAC, 2-chloro-N-((2S,3R)-1,3-dihydroxyoctadecan-2-yl)acetamide]
EC50 (OCI-AML3; 24 h, read-out: EC50 24 h): 0.6 µM | EC50 (OCI-AML3; 48 h, read-out: EC50 48 h): 0.4 µM | EC50 ([1]; 24 h, mean of normal samples (PBMCs and/or CD34+ cells), 24 hours, read-out: EC50 Normal): 13.5 µM | EC50 ([1]; 24 h, normal controls at 24 h, mean ± spread, read-out: EC50, normal controls): 13.5 ± 7.1 µM | EC50 ([1]; n=10, read-out: mean EC50, normal PMBC and CD34+ controls): 6 µM | apoptosis [2]: effectively induced apoptosis | colony formation [3]: substantially reduced colony formation | uptake following i.p. injection ([4]; i.p. injection): suboptimal uptake | serum levels ([4]; i.p., 40 mg/kg in DMSO): low serum levels | serum levels ([4]; i.v., 5 mg/kg in β-HPCD, compared with i.p.): great improvement | solubility in vehicles for i.v. drug delivery [5]: low solubility
